Reference: US20140072662A1, “Andrographis Paniculata Compositions and Methods for Treatment of Addictions” (Omeros Corporation, priority 2012, published 2014)

How the values were obtained:
[1] = in vivo, cited from earlier work
[2] = tested on: rat model of cerebral ischemia; details: in vivo; cited from earlier work
[3] = tested on: LPS-stimulated macrophages; details: cited from earlier work
[4] = clinical study; cited from earlier work
[5] = cited from earlier work
msP rats [6] = experiment: Central PPAR antagonist GW9662 on andrographolide-induced reduction of alcohol intake in msP rats; type: in vivo, rat; details: andrographolide 10 mg/kg, 6 consecutive days; 2, 8 and 24 hours
Experimental: GW9662, purchased from Tocris (Bristol, UK), was dissolved in 10% DMSO and 3% Tween 80 and the final volume (5 μg/μl) was adjusted adding distilled water. GW9662 was injected ICV in a volume of 1 μl per rat by means of a stainless-steel injector 2.5 mm longer than the guide cannula, so that its tip protruded into the ventricle.
A 22-gauge guide cannula for intracerebroventricular (ICV) drug injections was stereotaxically implanted into the lateral cerebroventricle with the following coordinates: anteroposterior (AP)=1.0; lateral (L)=1.8; ventral (V)=2.0 with reference to bregma.
(§1) A widely used method for testing fluid preference is the two-bottle choice paradigm, in which water and 10% (v/v) alcohol solution were offered in graduated drinking tubes equipped with metallic drinking spouts and their consumption was measured by reading the volume consumed from the graduated tubes. Food intake was measured by weighing the food containers and taking into account spillage. Alcohol, water and food intakes are expressed as g/kg to reduce the influence of differences in body weight.
To examine whether the effect of andrographolide on alcohol intake is mediated by brain PPAR receptors, another group of msP rats (N=31) was treated ICV with 5 μg/rat of the PPAR antagonist GW9662 and then injected with andrographolide (10 mg/kg) or its vehicle. In a between-subject design each group of animals (N=7-8/group) received a different drug dose for 6 consecutive days. GW9662 or its vehicle were administered twice daily at 12 hours and 30 minutes before the beginning of the dark period of the light-dark cycle. Andrographolide was given immediately after GW9662 administrations.
Alcohol, water, and food intake was recorded at 0.5, 2, 8 and 24 hours from the moment that alcohol was made available.

msP rats [7] = experiment: Two-bottle choice paradigm, voluntary 10% alcohol intake in msP rats; type: in vivo, rat; details: 3 days
From the text: Male genetically selected alcohol-preferring rats were used. They were bred at the Department of Experimental Medicine and Public Health of the University of Camerino (Marche, Italy) for 64 generations from Sardinian alcohol-preferring (sP) rats of the 13th generation, provided by the Department of Neurosciences of the University of Cagliari (Colombo et al, 2006). They are referred to as Marchigian sP (msP) rats (Ciccocioppo et al, 2006). At the time of the experiments their body weight ranged between 300 and 350 g. They were kept in single cages in a room with a reverse 12:12 h light/dark cycle (lights off at 9:30 a.m.), temperature of 20-22° C. and humidity of 45-55%. […]
as §1, with “weight. […]” for “weight.”
Alcohol, water and food intake were monitored daily at 0.5, 2, 8 and 24 hours. For all the experiments performed, intakes were recorded for several additional days after the end of the drug treatment period. […]

## C=C1CC[C@@H]2[C@](C)(CO)[C@H](O)CC[C@@]2(C)[C@@H]1C/C=C1/C(=O)OC[C@H]1O [andrographolide]
[1]; po
  oral bioavailability: low
[1]
  binding to plasma proteins: high
[2]
  neuroprotective effects: clear neuroprotective effects
[3]
  production of TNF-α, IL-1β and IL-12: inhibits
[4]
  ability to cross the brain-blood barrier: cross the brain-blood barrier
[5]
  aqueous solubility: low
msP rats [6]
  alcohol drinking: reduced alcohol consumption starting from the second day and for the entire duration of treatment
msP rats [7]; andrographolide 5 mg/kg i.p. twice daily
  voluntary alcohol intake: a statistical difference from controls was observed the last day of treatment for all the time points
msP rats [7]; andrographolide 10 mg/kg i.p. twice daily (12 h and 30 min before dark period)
  voluntary alcohol intake: the effect appeared from the second day of treatment (Day 3) and remained significant throughout the treatment period
